From patent US8394786B2, “Quinazoline derivatives” (Janssen Pharmaceutica N.V., priority 2003, dated 2013) come the findings set out here.

In data set [1] the test system is SKOV3 cells. The experiment in a line: Serum starved proliferation assay on the ovarian carcinoma SKOV3 cells (C3). The data set is classed as cell-based. The settings on record: EGF stimulated (100 ng/ml, 72 hours, serum free) or 72 hours with compounds, MTT cell viability assay; for IC50: Homo sapiens, SK-OV-3, 72 h, read-out: SKOV3 cell (C3): pIC50 (converted). Put shortly: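 MTT viability read-out in SKOV3 cells after a 24 h pre-incubation in 10% FCS, in one of two formats. EGF-stimulated version: serum-free compound exposure followed by 100 ng/ml EGF (final) for 72 h at 37 °C, 5% CO2. Otherwise, compound alone for 72 h.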
On the technique in general: Tetrazolium assays rely on reduction of a dye to a coloured formazan, in cell work by metabolically active cells.

Data set [2] has as its target EGFR (Homo sapiens, UniProt P00533). The experiment in a line: In vitro inhibition of EGFR, Flash Plate or glass-fiber filter technology (C2). In kind it is biochemical. Also noted: 0.5 μg EGFR-kinase domain/well. The settings on record: EGFR-kinase domain, 5.0 μM unlabeled ATP, read-out: Kinase activity.(C2): pIC50 (converted). In outline:
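Two radiometric formats were used, each with 5.0 μM unlabeled ATP, [33P]ATP, 0.5 μg EGFR kinase domain and compounds from 1·10^−10 to 1·10^−6 M. Glass-fiber filter: 25° C for 10 min, pH 7.5, Mn2+/Mg2+, acid-stopped, phosphorimager read. Streptavidin Flash Plate: biotinylated poly(GT), pH 8.0, 30° C for 60 min.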

Each structure is given as a SMILES string.

EGFR, sequence (P00533 712-979 limits assumed): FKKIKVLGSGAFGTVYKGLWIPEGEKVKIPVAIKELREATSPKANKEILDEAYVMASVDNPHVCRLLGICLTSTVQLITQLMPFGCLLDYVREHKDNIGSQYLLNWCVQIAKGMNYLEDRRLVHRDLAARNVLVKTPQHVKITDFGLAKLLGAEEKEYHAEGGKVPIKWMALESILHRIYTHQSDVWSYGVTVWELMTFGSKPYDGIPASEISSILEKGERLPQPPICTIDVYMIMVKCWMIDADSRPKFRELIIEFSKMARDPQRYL

What is called melting point is the temperature, or range, at which the solid turns liquid. Regarding `COc1cc2ncnc3c2cc1OCCNC(=O)C(C(C)C)NC(=O)Cc1ccc(Cl)cc1N3` (stereo not drawn) [Compound 66, 4,6-ethanediylidene-8H-pyrimido[4,5-b][6,1,9,12]benzoxatriazacyclohexadecine-11,14-dione, 18-chloro-9,10,12,13,15,20-hexahydro-21-methoxy-12-(1-methylethyl)-], the melting point came out at 335 °C. Further, the IC50 in data set [1] was 10 nM. In addition, in data set [2], the IC50 is 79.4 nM.

The compound `COc1cc2ncnc3c2cc1OCCNC(=O)CNC(=O)Cc1ccc(Cl)cc1N3` [Compound 69, 4,6-ethanediylidene-8H-pyrimido[4,5-b][6,1,9,12]benzoxatriazacyclohexadecine-11,14-dione, 18-chloro-9,10,12,13,15,20-hexahydro-21-methoxy-] gave a melting point of 292 °C. The IC50 in data set [1] is 63.1 nM. Moreover, the IC50 in data set [2] is 50.1 nM.

The compound `COc1cc2ncnc3c2cc1OCCCNC(=O)CCNCc1ccc(Cl)cc1N3` [Compound 70, 4,6-ethanediylidenepyrimido[4,5-b][6,1,10,14]benzoxatriazacycloheptadecin-12(13H)-one, 19-chloro-8,9,10,11,14,15,16,21-octahydro-22-methoxy-] displayed a melting point of 236.4 to 237.3 °C. For the same compound, in data set [1], the IC50 is 3160 nM. Besides, the IC50 in data set [2] was 10 nM.

Turning to `COc1cc2ncnc3c2cc1OCCNC(=O)C1CCCN1Cc1ccc(Cl)cc1N3` (stereo not drawn) [Compound 71, 4,6-ethanediylidenepyrimido[4,5-b]pyrrolo[2,1-k][6,1,9,12]benzoxatriazacyclopentadecin-11(8H)-one, 19-chloro-9,10,11a,12,13,14,16,21-octahydro-22-methoxy-], the melting point lay in the range of 261.2 to 265 °C. For the same compound, the “SKOV3 cell (C3): pIC50” value in data set [1] is reported as 5.5. In data set [2], the IC50 is 31.6 nM.

`COc1cc2ncnc3c2cc1OCCNC(=O)CN(C)Cc1ccc(Cl)cc1N3` [Compound 72, 4,6-ethanediylidenepyrimido[4,5-b][6,1,9,12]benzoxatriazacyclopentadecin-11(8H)-one, 17-chloro-9,10,12,13,14,19-hexahydro-20-methoxy-13-methyl-] had a melting point of 288.5 to 290.5 °C. Besides, in data set [1], the IC50 was 10000 nM. The IC50 in data set [2] was 158 nM.

`COc1cc2ncnc3c2cc1OCCNC(=O)CNCc1ccc(Cl)cc1N3` [Compound 73, 4,6-ethanediylidenepyrimido[4,5-b][6,1,9,12]benzoxatriazacyclopentadecin-11(8H)-one, 17-chloro-9,10,12,13,14,19-hexahydro-20-methoxy-] displayed a melting point of 294.2 to 295.2 °C. Moreover, the IC50 in data set [1] is 3980 nM. Moreover, the IC50 in data set [2] is 39.8 nM.

Compound `COc1cc2ncnc3c2cc1OCCCNC(=O)CN(C)Cc1ccc(Cl)cc1N3` [Compound 74, 4,6-ethanediylidene-12H-pyrimido[4,5-b][6,1,10,13]benzoxatriazacyclohexadecin-12-one, 18-chloro-8,9,10,11,13,14,15,20-octahydro-21-methoxy-14-methyl-] registered a melting point of 240 to 240.3 °C. Further, in data set [1], the IC50 is 1000 nM. Further, the IC50 in data set [2] is 25.1 nM.

The compound `COc1cc2ncnc3c2cc1OCCNC(=O)CCNCc1ccc(Cl)cc1N3` [Compound 75, 4,6-ethanediylidene-8H-pyrimido[4,5-b][6,1,9,13]benzoxatriazacyclohexadecin-11(12H)-one, 18-chloro-9,10,13,14,15,20-hexahydro-21-methoxy-] registered a melting point of 254.4 to 256.5 °C. For the same compound, the IC50 in data set [1] was 6310 nM. Besides, the IC50 in data set [2] is 63.1 nM.

In turn, `COc1cc2ncnc3c2cc1OCCCNC(=O)C1CCC(=O)N1Cc1ccc(Cl)cc1N3` (stereo not drawn) [Compound 76, 4,6-etheno-8H-pyrimido[4,5-b]pyrrolo[2,1-l][6,1,10,13]benzoxatriazacyclohexadecine-12,15(14H)-dione, 20-chloro-9,10,11,12a,13,17,22-heptahydro-23-methoxy-] gave a melting point of 350.5 to 352.5 °C. In addition, the IC50 in data set [1] is 200 nM. For the same compound, the IC50 in data set [2] is 25.1 nM.

`COc1cc2ncnc3c2cc1OCCNC(=O)C1CCCN1Cc1cc(F)c(Cl)cc1N3` (stereo not drawn) [Compound 78, 4,6-ethanediylidenepyrimido[4,5-b]pyrrolo[2,1-k][6,1,9,12]benzoxatriazacyclopentadecin-11(8H)-one, 19-chloro-18-fluoro-9,10,11a,12,13,14,16,21-octahydro-22-methoxy-] yielded a melting point of 261.4 to 264 °C. Further, the IC50 in data set [1] was 316 nM. In data set [2], the IC50 is 31.6 nM.

Compound `COc1cc2ncnc3c2cc1OCCNC(=O)CN(C)Cc1cc(F)c(Cl)cc1N3` [Compound 79, 4,6-ethanediylidenepyrimido[4,5-b][6,1,9,12]benzoxatriazacyclopentadecin-11(8H)-one, 17-chloro-16-fluoro-9,10,12,13,14,19-hexahydro-20-methoxy-13-methyl-] yielded a melting point of 306.3 to 307.4 °C. The IC50 in data set [1] was 10000 nM. Besides, the IC50 in data set [2] is 631 nM.

For `COc1cc2ncnc3c2cc1OCCCNC(=O)CN(C)Cc1cc(F)c(Cl)cc1N3` [Compound 80, 4,6-ethanediylidene-12H-pyrimido[4,5-b][6,1,10,13]benzoxatriazacyclohexadecin-12-one, 18-chloro-17-fluoro-8,9,10,11,13,14,15,20-octahydro-21-methoxy-14-methyl-], the melting point fell in the range of 260.4 to 261.1 °C. The IC50 in data set [1] was 63.1 nM. Also, the IC50 in data set [2] is 20 nM.

`COc1cc2ncnc3c2cc1OCCNC(=O)CNCc1cc(F)c(Cl)cc1N3` [Compound 81, 4,6-ethanediylidenepyrimido[4,5-b][6,1,9,12]benzoxatriazacyclopentadecin-11(8H)-one, 17-chloro-16-fluoro-9,10,12,13,14,19-hexahydro-20-methoxy-] had a melting point of 304.2 to 304.4 °C. In addition, the IC50 in data set [1] was 251 nM. Besides, the IC50 in data set [2] was 251 nM.

Consider `COc1cc2ncnc3c2cc1OCCCNC(=O)CNCc1cc(F)c(Cl)cc1N3` [Compound 82, 4,6-ethanediylidene-12H-pyrimido[4,5-b][6,1,10,13]benzoxatriazacyclohexadecin-12-one, 18-chloro-17-fluoro-8,9,10,11,13,14,15,20-octahydro-21-methoxy-], for which the melting point lay in the range of 311 to 311.9 °C. Also, the IC50 in data set [1] is 79.4 nM. The IC50 in data set [2] was 20 nM.

`COc1cc2ncnc3c2cc1OCCNC(=O)C1CCCN1Cc1ccc(Cl)cc1N3` (stereo not drawn) [Compound 83, 4,6-ethanediylidenepyrimido[4,5-b]pyrrolo[2,1-k][6,1,9,12]benzoxatriazacyclopentadecin-11(8H)-one, 19-chloro-9,10,11a,12,13,14,16,21-octahydro-22-methoxy-] came in with a melting point of 262 to 262.8 °C. In addition, the “SKOV3 cell (C3): pIC50” value in data set [1] turned out to be 6.1. Moreover, the IC50 in data set [2] was 501 nM.

`COc1cc2ncnc3c2cc1OCCCNC(=O)CNCc1ccc(Cl)cc1N3` [Compound 99, 4,6-ethanediylidene-12H-pyrimido[4,5-b][6,1,10,13]benzoxatriazacyclohexadecin-12-one, 18-chloro-8,9,10,11,13,14,15,20-octahydro-21-methoxy-]: the melting point lay within 304.6 to 304.8 °C. Also, the IC50 in data set [1] was 200 nM. For the same compound, the IC50 in data set [2] was 25.1 nM.

`COc1cc2ncnc3c2cc1OCCCCNC(=O)C1CCCN1Cc1ccc(Cl)cc1N3` (stereo not drawn) [Compound 100, 4,6-ethanediylidenepyrimido[4,5-b]pyrrolo[2,1-m][6,1,11,14]benzoxatriazacycloheptadecin-13(8H)-one, 21-chloro-9,10,11,12,13a, 14,15,16,18,23-decahydro-24-methoxy-] gave a melting point of 226.3 to 227.7 °C. Besides, the IC50 in data set [1] is 126 nM. Besides, in data set [2], the IC50 was 7.94 nM.

The compound `COc1cc2ncnc3c2cc1OCCCNCCN(C)Cc1ccc(Cl)cc1N3` [Compound 114, 4,6-ethanediylidene-8H-pyrimido[4,5-b][6,1,10,13]benzoxatriazacyclohexadecine, 18-chloro-9,10,11,12,13,14,15,20-octahydro-21-methoxy-14-methyl-] had a melting point of 202.8 to 203.6 °C. Moreover, in data set [1], the IC50 is 39.8 nM. For the same compound, the IC50 in data set [2] was 10 nM.

With `COc1cc2ncnc3c2cc1OCCCCNCCN(C)Cc1ccc(Cl)cc1N3` [Compound 115, 4,6-ethanediylidenepyrimido[4,5-b][6,1,11,14]benzoxatriazacycloheptadecine, 19-chloro-8,9,10,11,12,13,14,15,16,21-decahydro-22-methoxy-15-methyl-], the melting point lay in the range of 196.9 to 197.8 °C. Moreover, the IC50 in data set [1] is 126 nM. Moreover, the IC50 in data set [2] is 6.31 nM.

`COc1cc2ncnc3c2cc1OCCNCCN(C)Cc1ccc(Cl)cc1N3` [Compound 116, 4,6-ethanediylidenepyrimido[4,5-b][6,1,9,12]benzoxatriazacyclopentadecine, 17-chloro-8,9,10,11,12,13,14,19-octahydro-20-methoxy-13-methyl-]: the melting point is 195.8 to 196.6 °C. Besides, in data set [1], the IC50 was 63.1 nM. For the same compound, the IC50 in data set [2] is 200 nM.
